# Results as given in patent US20220242851A1, “CRYSTAL FORM AND SALT OF QUINAZOLINE COMPOUND AND PREPARATION METHOD THEREOF” (SHENZHEN JINRUI FOUNDATION BIOTECH CO., LTD, priority 2019, published 2022).
# Tests used:
# OE19 cells = assay: CTG assay of OE19 cells; format: cell-based; conditions: conclusion
# Procedure: OE19 cells with saturation of 80%-90% were digested with trypsin, centrifuged, resuspended and counted. The concentration of cells was adjusted to […]. OE19 cells were added to a 96-well cell culture plate to 8000 OE19 cells per well. The cells were cultured in a cell incubator containing 5% CO2 at 37° C. overnight.
# The stock solution of the assay compounds was serially 3-fold diluted with DMSO to a total of 10 concentrations. Before the start of the assay, the serially diluted assay compounds were further diluted to 10×compound solutions (the highest concentration of 100 μM containing 1% DMSO) with cell culture medium under sterile conditions. The prepared 10×compound solutions were added to the cell culture plate with 10 μL per well. […]
# After 72 hours of cell culture, the 96-well cell culture plate was taken out. […] The cell plate was placed in Envision for reading.
# The inhibition rate was calculated according to original data as follows: […]
# Non-linear regression analysis was performed using the processed data and GraphPad Prism 6 analysis software to obtain a dose-response curve, and the half-inhibitory concentration (IC50) of the assay compounds on OE19 cells was calculated.
# CYP3A4 = target: T1, CYP3A4 (Homo sapiens, UniProt P08684); assay: Inhibition of CYP enzyme activity in human liver microsome, CYP3A4; format: in vitro ADME
# T1 construct: in the assay of CYP enzyme activity in human liver microsome; from tissue; host or cells: human liver microsome
# T1 sequence (P08684 whole entry): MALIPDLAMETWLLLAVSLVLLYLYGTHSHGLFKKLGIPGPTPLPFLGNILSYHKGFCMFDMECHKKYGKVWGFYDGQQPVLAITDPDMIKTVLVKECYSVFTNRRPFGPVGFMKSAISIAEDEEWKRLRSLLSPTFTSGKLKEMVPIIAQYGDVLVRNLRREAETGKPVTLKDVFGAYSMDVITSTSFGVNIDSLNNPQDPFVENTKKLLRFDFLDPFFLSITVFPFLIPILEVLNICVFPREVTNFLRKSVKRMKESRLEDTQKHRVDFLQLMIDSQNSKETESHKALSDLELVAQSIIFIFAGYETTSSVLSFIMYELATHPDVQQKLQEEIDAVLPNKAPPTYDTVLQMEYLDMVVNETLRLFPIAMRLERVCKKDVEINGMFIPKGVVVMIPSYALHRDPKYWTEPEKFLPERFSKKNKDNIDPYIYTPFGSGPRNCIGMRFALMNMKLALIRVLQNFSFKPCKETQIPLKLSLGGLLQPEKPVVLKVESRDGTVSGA
# From the text: (§1) The results of the compound disclosed herein and the reference compound Poziotinib in the assay of CYP enzyme activity in human liver microsome were shown in the following table (Table 17).
# Pharmacokinetics in mice = format: in vivo, mouse
# Procedure: Purpose of the assay: this assay aimed to investigate in vivo plasma pharmacokinetics of the example compound disclosed herein and the reference compound in female BALB/c mice after the single intravenous injection and intragastric administration thereof.
# Animals of the assay: female BALB/c nude mice, 7-9 weeks old, weighted 17-23 grams; supplier: shanghai sippr bk laboratory animals Ltd.
# Sample collection: at each time point, a 0.03 mL blood sample was collected from the saphenous vein of the assay animal by puncture, and the actual blood collection time was recorded. All blood samples were added into commercial EDTA-K2 anticoagulation tubes with a specification of 1.5 mL (the supplier was Jiangsu KANGJIAN Medical Apparatus Co., Ltd.). Within half an hour after the blood sample was collected, the blood sample was centrifuged at 3000 g at 4° C. for 10 minutes, and the supernatant plasma was drawn, quickly placed in dry ice, and stored in a refrigerator at −80° C. for LC-MS/MS analysis.
# Data analysis: Plasma concentrations were processed using a non-compartmental model of WinNonlin™Version6.3 (Pharsight, MountainView, Calif.) pharmacokinetic software, and pharmacokinetic parameters Cmax, Tmax, T1/2, and AUC0-last were calculated using a linear log trapezoid method.
# CYP2C19 = target: T2, CYP2C19 (Homo sapiens, UniProt P33261); assay: Inhibition of CYP enzyme activity in human liver microsome, CYP2C19; format: in vitro ADME
# T2 construct: in the assay of CYP enzyme activity in human liver microsome; from tissue; host or cells: human liver microsome
# T2 sequence (P33261 whole entry): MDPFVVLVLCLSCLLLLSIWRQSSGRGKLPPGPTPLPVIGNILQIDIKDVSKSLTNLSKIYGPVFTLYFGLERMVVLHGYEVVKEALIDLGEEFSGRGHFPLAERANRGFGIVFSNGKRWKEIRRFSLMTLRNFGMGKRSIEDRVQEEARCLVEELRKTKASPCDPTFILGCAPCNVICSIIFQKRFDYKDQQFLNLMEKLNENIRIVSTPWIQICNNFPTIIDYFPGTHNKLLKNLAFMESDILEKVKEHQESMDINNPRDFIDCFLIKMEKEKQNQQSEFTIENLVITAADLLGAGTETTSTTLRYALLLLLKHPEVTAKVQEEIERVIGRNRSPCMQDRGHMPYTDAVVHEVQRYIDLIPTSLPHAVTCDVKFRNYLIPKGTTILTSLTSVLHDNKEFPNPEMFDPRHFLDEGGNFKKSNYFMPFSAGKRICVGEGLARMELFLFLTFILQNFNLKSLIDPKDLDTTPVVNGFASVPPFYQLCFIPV
# From the text: as §1
# CYP2D6 = target: T3, CYP2D6 (Homo sapiens, UniProt P10635); assay: Inhibition of CYP enzyme activity in human liver microsome, CYP2D6; format: in vitro ADME; conditions: versus Poziotinib
# T3 construct: in the assay of CYP enzyme activity in human liver microsome; from tissue; host or cells: human liver microsome
# T3 sequence (P10635 whole entry): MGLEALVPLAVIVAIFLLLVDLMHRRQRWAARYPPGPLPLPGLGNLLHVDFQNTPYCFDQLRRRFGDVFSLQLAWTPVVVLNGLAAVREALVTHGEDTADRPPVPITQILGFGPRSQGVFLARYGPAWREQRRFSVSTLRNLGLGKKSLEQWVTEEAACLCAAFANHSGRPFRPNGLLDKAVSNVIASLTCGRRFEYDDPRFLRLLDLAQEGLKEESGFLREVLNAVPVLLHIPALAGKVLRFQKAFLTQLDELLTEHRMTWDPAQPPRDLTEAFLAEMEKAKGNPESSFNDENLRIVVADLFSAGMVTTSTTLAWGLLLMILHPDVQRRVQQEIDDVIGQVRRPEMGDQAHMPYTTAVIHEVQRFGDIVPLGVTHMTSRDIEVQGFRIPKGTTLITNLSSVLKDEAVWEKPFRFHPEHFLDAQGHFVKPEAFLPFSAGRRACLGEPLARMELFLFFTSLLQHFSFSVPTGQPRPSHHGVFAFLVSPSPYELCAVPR
# From the text: as §1
# OE21 cell = assay: Inhibition of cell proliferation, Cell-Titer-Glo, OE21; format: cell-based, human; conditions: conclusion
# From the text: Purpose of the assay: the inhibitory activity of the assay compounds on cell proliferation was detected. Principle of the assay: the luciferase in a Cell-Titer-Glo reagent produces oxidized luciferin with luciferin, oxygen and ATP as reaction substrates, and releases energy in the form of light. Since the luciferase reaction requires ATP, the total amount of light generated by the reaction is proportional to the total amount of ATP that reflects cell viability. Cell line: NCI-N87 cell line (ATCC-CRL-5822), BT-474 cell line (ATCC-HTB-20), OE21 (ECACC-96062201) Cell culture medium: […] L-[…]×, Gibco#25030-081; penicillin-streptomycin Hyclone# SV30010) Cell Titer-Glo® cell viability assay kit with luminescence (Promega #G7573) 384-well cell culture plate (Greiner # 781090) Compound plate (LABCYTE # LP-0200) CO2 incubator (Thermo#371) Vi-cell cell counter (Beckman Coulter) According to the schematic diagram of the cell seed plate, cells were seeded in a 384- or 96-well plate at a density of 1000 cells per well and 25 μL per well, and 25 μL of PBS was added to the wells near edge of the place where no cells were seeded. (1) The stock solution of the compounds has a concentration of 10 mM, and the compounds were diluted with DMSO to an initial concentration of 4 mM. […] After 10 minutes, the plate was read on PerkinElmer Envision, and the […] reading time was set to 0.2 second.
structure (smiles),measurement,setting,value
C=CC(=O)N1[C@@H]2CC[C@H]1C[C@H](Nc1cc3c(Nc4ccc(Cl)c(Cl)c4F)ncnc3cc1OC)C2 [Compound of formula (I)],inhibitory activity on the proliferation of OE19 cells (in words),OE19 cells,significant inhibitory activity
same,inhibitory activity on CYP3A4 (in words),CYP3A4,no inhibitory activity
same,half-life compared with reference (in words),Pharmacokinetics in mice,longer half-life than that of the reference compound
same,oral plasma exposure compared with Poziotinib and control compound 2 (in words),Pharmacokinetics in mice,significantly better oral plasma exposure
same,inhibitory activity on CYP2C19 compared with Poziotinib (in words),CYP2C19,comparable to that of the reference compound Poziotinib
same,"activity on CYP2D6, times better than the reference compound",CYP2D6,6 times
same,inhibitory activity on the proliferation of OE21 cells (in words),OE21 cell,significant inhibitory activity
